Laboratory results as given in ChEMBL document CHEMBL5137025, “Tuberculosis Drug Discovery: Challenges and New Horizons” (J Med Chem, 2022).
In brackets after ≈: the same amount, converted by molar mass.

Test system: Mycobacterium tuberculosis variant bovis
Experiment: Antibacterial activity against Mycobacterium bovis BCG assessed as inhibition of bacterial growth incubated for 4 to 7 days
Assay type: functional
Settings: time 4-7 day

Nc1nc(N)c(N=O)c(OCC2CCCCC2)n1
MIC99: 1.6 µM (≈ 0.402 µg/mL)
